From patent US20240018163A1, “NEW THIAZOLOPYRIMIDINONE DERIVATIVES” (Hoffmann-La Roche Inc., priority 2021, published 2024)

Test system: mutant HTT protein (mHTT)
Test: Homogeneous Time Resolved Fluorescence (HTRF) assay for HTT lowering
Format: cell-based
Conditions: reduction of mHTT in Huntington patient human cells (GENEAe020-A cell line), 48 hours incubation, mean from three replicates
Experimental: Homogeneous Time Resolved Fluorescence for HTT lowering
The HTRF assay was adapted from Weiss et al. (Analytical Biochemistry Volume 395, Issue 1, 1 Dec. 2009, Pages 8-15 and Analytical Biochemistry Volume 410, 2011, Pages 304-306) to cells from GENEAe020-A cell line (https://hpscreg.eu/cell-line/GENEAe020-A).
Compounds were tested for the effect of mutant HTT levels in Huntington patient human cells (GENEAe020-A cell line) using Homogeneous Time Resolved Fluorescence (HTRF) directed towards mutant HTT protein (mHTT). The GENEAe020-A cell line was derived by Genea Biocells from human blastocysts of HD donors. After assessing viability, cells were plated into 384 well collagen coated plates in growth media. Once cells adhered, media was removed and test compounds dissolved in DMSO were diluted with buffer solution and added to the adherent cells. Controls included experiments with no cells, DMSO with no compound, and Hsp90 inhibitor control. Cells were incubated with compounds and controls for 48 hours. Then, the cells were lysed and transferred to an assay plate containing HTRF labeled monoclonal antibodies developed by Paul Patterson (Ko et al., Brain Research Bulletin, Volume 56, Numbers 3 and 4, 2001, Pages 319-329) which recognize specific areas of the HTT protein. The terbium labeled “donor” antibody (2B7) binds to the N-terminus of the HTT protein and the Alexa488 labeled “acceptor” antibody (MW1) is specific for the polyglutamine region of the protein. Binding of the acceptor labeled antibody is more efficient for the extended polyglutamine repeats of mutant HTT protein which translates into a signal boost which enables the specific measurement of mutant HTT protein level. The HTRF donor and acceptor detection reagents were incubated with the cell lysate and the ratio between the signals of the two fluorophores is indicative of the relative quantities of mHTT.

Compound | EC50
COc1cc(-c2cc(=O)n3cc([C@@H]4CCNC5(CC5)C4)sc3n2)nn2cc(C)nc12 [Example 41, 7-(8-methoxy-2-methyl-imidazo[1,2-b]pyridazin-6-yl)-2-[(7R)-4-azaspiro[2.5]octan-7-yl]thiazolo[3,2-a]pyrimidin-5-one] | 106 nM
COc1cc(-c2cc(=O)n3cc(C4(F)CCNCC4)sc3n2)nn2cc(C)nc12 [Example 42, 2-(4-fluoro-4-piperidyl)-7-(8-methoxy-2-methyl-imidazo[1,2-b]pyridazin-6-yl)thiazolo[3,2-a]pyrimidin-5-one] | 53 nM
Cc1cc(-c2cc(=O)n3cc([C@@H]4CCNC[C@@H]4F)sc3n2)nn2cc(Cl)nc12 [Example 43, 7-(2-chloro-8-methyl-imidazo[1,2-b]pyridazin-6-yl)-2-[(3R,4R)-3-fluoro-4-piperidyl]thiazolo[3,2-a]pyrimidin-5-one] | 152 nM
Cc1nc2c(C)cc(-c3cc(=O)n4cc([C@@H]5CCNC[C@@H]5F)sc4n3)nc2o1 [Example 44, 7-(2,7-dimethyloxazolo[5,4-b]pyridin-5-yl)-2-[(3R,4R)-3-fluoro-4-piperidyl]thiazolo[3,2-a]pyrimidin-5-one] | 59 nM
COc1cc(-c2cc(=O)n3cc([C@@H]4CCNC[C@H]4F)sc3n2)nn2cc(C)nc12 [Example 45, 7-(8-methoxy-2-methyl-imidazo[1,2-b]pyridazin-6-yl)-2-[(3S,4R)-3-fluoro-4-piperidyl]thiazolo[3,2-a]pyrimidin-5-one] | 97 nM
COc1cc(-c2cc(=O)n3cc([C@H]4CCNC[C@@H]4F)sc3n2)nn2cc(C)nc12 [Example 46, 7-(8-methoxy-2-methyl-imidazo[1,2-b]pyridazin-6-yl)-2-[(3R,4S)-3-fluoro-4-piperidyl]thiazolo[3,2-a]pyrimidin-5-one] | 69 nM
Cc1cn2nc(-c3cc(=O)n4cc([C@H]5C[C@H]6CNC[C@@H](C5)O6)sc4n3)cc(C)c2n1 [Example 47, 7-(2,8-dimethylimidazo[1,2-b]pyridazin-6-yl)-2-[rac-(1R,5S)-9-oxa-3-azabicyclo[3.3.1]nonan-7-yl]thiazolo[3,2-a]pyrimidin-5-one] | 330 nM
Cc1cn2nc(-c3cc(=O)n4cc([C@H]5C[C@H]6CNC[C@@H](C5)O6)sc4n3)cc(C)c2n1 [Example 48, 7-(2,8-dimethylimidazo[1,2-b]pyridazin-6-yl)-2-[rac-(1S,5R)-9-oxa-3-azabicyclo[3.3.1]nonan-7-yl]thiazolo[3,2-a]pyrimidin-5-one] | 92 nM
COc1cc(-c2cc(=O)n3cc([C@H]4C[C@H]5CNC[C@@H](C4)O5)sc3n2)nn2cc(C)nc12 [Example 49, 7-(8-methoxy-2-methyl-imidazo[1,2-b]pyridazin-6-yl)-2-[rac-(1R,5S)-9-oxa-3-azabicyclo[3.3.1]nonan-7-yl]thiazolo[3,2-a]pyrimidin-5-one] | 200 nM
COc1cc(-c2cc(=O)n3cc([C@H]4C[C@H]5CNC[C@@H](C4)O5)sc3n2)nn2cc(C)nc12 [Example 50, 7-(8-methoxy-2-methyl-imidazo[1,2-b]pyridazin-6-yl)-2-[rac-(1S,5R)-9-oxa-3-azabicyclo[3.3.1]nonan-7-yl]thiazolo[3,2-a]pyrimidin-5-one] | 57 nM
Cc1cn2nc(-c3cc(=O)n4cc([C@H]5[C@@H]6CNC[C@@H]65)sc4n3)cc(C)c2n1 [Example 55, 7-(2,8-dimethylimidazo[1,2-b]pyridazin-6-yl)-2-[rac-(1S,5R)-3-azabicyclo[3.1.0]hexan-6-yl]thiazolo[3,2-a]pyrimidin-5-one] | 65 nM
COc1cc(-c2cc(=O)n3cc([C@]4(F)CCNC[C@H]4F)sc3n2)nn2cc(C)nc12 [Example 56, 7-(8-methoxy-2-methyl-imidazo[1,2-b]pyridazin-6-yl)-2-[(3R,4S)-3,4-difluoro-4-piperidyl]thiazolo[3,2-a]pyrimidin-5-one] | 50 nM
COc1cc(-c2cc(=O)n3cc([C@]4(F)CCNC[C@@H]4F)sc3n2)nn2cc(C)nc12 [Example 57, 7-(8-methoxy-2-methyl-imidazo[1,2-b]pyridazin-6-yl)-2-[(3S,4S)-3,4-difluoro-4-piperidyl]thiazolo[3,2-a]pyrimidin-5-one] | 239 nM
COc1cc(-c2cc(=O)n3cc([C@@]4(F)CCNC[C@H]4F)sc3n2)nn2cc(C)nc12 [Example 58, 7-(8-methoxy-2-methyl-imidazo[1,2-b]pyridazin-6-yl)-2-[(3R,4R)-3,4-difluoro-4-piperidyl]thiazolo[3,2-a]pyrimidin-5-one] | 99 nM
COc1cc(-c2cc(=O)n3cc([C@@]4(F)CCNC[C@@H]4F)sc3n2)nn2cc(C)nc12 [Example 59, 7-(8-methoxy-2-methyl-imidazo[1,2-b]pyridazin-6-yl)-2-[(3S,4R)-3,4-difluoro-4-piperidyl]thiazolo[3,2-a]pyrimidin-5-one] | 428 nM
